From ChEMBL document CHEMBL1126397, “Synthesis of acid stable 5-o-fluoromethyl phosphonates of nucleosides. Evaluation as inhibitors of reverse transcriptase” (Bioorg Med Chem Lett, 1992) come the findings set out here.

Test [1] addresses T1, Human immunodeficiency virus type 1 reverse transcriptase (Human immunodeficiency virus 1, UniProt Q72547). The test can be described thus: The compound was evaluated as inhibitor of recombinant HIV-l reverse transcriptase.
Test [2] deals with Avian myeloblastosis virus. The test can be described thus: The compound was evaluated as inhibitor of avian myeloblastosis virus (AMV) reverse transcriptase. Type of test: functional, organism-based.
The target of test [3] is T2, Avian myoblastosis virus polyprotein II (Avian myeloblastosis virus, UniProt Q86831).
T2 sequence (Q86831 whole entry): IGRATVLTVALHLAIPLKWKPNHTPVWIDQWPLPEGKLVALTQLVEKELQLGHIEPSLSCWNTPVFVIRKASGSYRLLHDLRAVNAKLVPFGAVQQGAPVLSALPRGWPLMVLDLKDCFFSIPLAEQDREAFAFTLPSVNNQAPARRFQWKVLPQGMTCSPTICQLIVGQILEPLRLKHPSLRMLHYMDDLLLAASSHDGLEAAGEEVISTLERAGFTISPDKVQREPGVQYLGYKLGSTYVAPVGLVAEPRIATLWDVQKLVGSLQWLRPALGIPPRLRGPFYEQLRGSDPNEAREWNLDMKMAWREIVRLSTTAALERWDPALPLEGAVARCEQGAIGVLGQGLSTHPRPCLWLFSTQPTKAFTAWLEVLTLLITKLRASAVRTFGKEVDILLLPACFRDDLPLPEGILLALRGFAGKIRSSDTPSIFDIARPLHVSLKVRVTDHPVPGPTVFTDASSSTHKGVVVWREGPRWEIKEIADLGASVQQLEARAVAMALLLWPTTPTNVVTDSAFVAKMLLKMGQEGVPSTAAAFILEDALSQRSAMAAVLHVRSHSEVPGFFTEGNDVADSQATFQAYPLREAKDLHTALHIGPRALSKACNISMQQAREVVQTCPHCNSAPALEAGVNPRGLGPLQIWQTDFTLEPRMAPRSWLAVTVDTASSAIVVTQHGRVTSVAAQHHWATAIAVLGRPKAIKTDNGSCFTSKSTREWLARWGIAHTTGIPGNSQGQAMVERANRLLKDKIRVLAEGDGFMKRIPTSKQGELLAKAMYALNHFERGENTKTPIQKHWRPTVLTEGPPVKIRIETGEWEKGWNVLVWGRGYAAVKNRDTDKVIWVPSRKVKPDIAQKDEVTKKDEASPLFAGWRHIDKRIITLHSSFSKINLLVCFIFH
The test can be described thus: Inhibitor of avian myeloblastosis virus AMV reverse transcriptase.

The subject of test [4] is Avian myeloblastosis virus. The test can be described thus: Compound was evaluated as inhibitor of avian myeloblastosis virus (AMV) reverse transcriptase. Type of test: functional, organism-based.
The target in test [5] is T1, Human immunodeficiency virus type 1 reverse transcriptase. The test can be described thus: Compound was evaluated as inhibitor of recombinant HIV-l reverse transcriptase.

The structures appear in SMILES notation. In brackets after ≈: the same amount, converted by molar mass.

For `Cc1cn(C2CC(N=[N+]=[N-])C(COP(=O)(O)C(F)F)O2)c(=O)[nH]c1=O` (stereo not drawn), the IC50 – broadly, the concentration that gives 50% inhibition – in test [1] is 55.1 µM. Still for that read-out and setting: the same measure for `Cc1cn(C2CC(N=[N+]=[N-])C(COP(=O)(O)CF)O2)c(=O)[nH]c1=O` (stereo not drawn): 110 µM. As for `Cc1cn([C@H]2C[C@H](N=[N+]=[N-])[C@@H](COP(=O)(O)O)O2)c(=O)[nH]c1=O` [AZIDOTHYMIDINE MONOPHOSPHATE], the values for the IC50 in test [2] and in test [1] were 900 µg/mL and over 2880 µM, respectively. Regarding `O=c1[nH]c(=O)n([C@H]2C[C@H](O)[C@@H](COP(=O)(O)C(F)(F)F)O2)cc1F`, the IC50 in test [1] was 47.6 µM.

`Nc1nc(O)c2ncn(C3O[C@H](COP(=O)(O)C(F)F)[C@@H](O)[C@H]3O)c2n1` (stereo partly drawn) displayed a concentration for half-maximal inhibition (IC50) in test [2] of 150 µg/mL (≈ 378 µM). As to `Nc1ncnc2c1ncn2C1O[C@H](COP(=O)(O)C(F)F)[C@@H](O)[C@H]1O` (stereo partly drawn), the IC50 in test [3] was over 1050 µM.

Molecule `O=c1ccn(C2O[C@H](COP(=O)(O)C(F)F)[C@@H](O)[C@H]2O)c(=O)[nH]1` (stereo partly drawn) yielded an IC50 in test [3] of over 1120 µM. As for `Cc1cn([C@H]2C[C@H](N=[N+]=[N-])[C@@H](CO[P@](=O)(O)O[P@](=O)(O)OP(=O)(O)O)O2)c(=O)[nH]c1=O` [ZIDOVUDINE TRIPHOSPHATE], the concentration for half-maximal inhibition (IC50) in test [2] is 0.06 µg/mL; in test [1] it was 0.237 µM. With `Cc1cn([C@H]2C[C@H](N=[N+]=[N-])[C@@H](CO)O2)c(=O)[nH]c1=O` [ZIDOVUDINE], the IC50 is 600 µg/mL (≈ 2250 µM) in test [4] and 2990 µM in test [5]. Take `Cc1cn(C2CC(N=[N+]=[N-])C(COP(=O)(O)C(F)(F)F)O2)c(=O)[nH]c1=O` (stereo not drawn): the IC50 in test [1] is 30.1 µM.
